# Measurements as given in PMC9464843, “Escitalopram co-prescription in anastrozole-treated breast cancer patients” (Northern Clinics of Istanbul, 2022).
# Like-named read-outs stand apart in the source and are kept apart here.
# Legend:
# CYP2D6 [1] = details: cited from earlier work; for Ability to inhibit the CYP2D6 enzyme: SSRI antidepressants
# CYP2C19 = tested on: CYP2C19; parameters: method as in PMID 11454728; details: cited from earlier work
# [2] = tested on: depression-related symptoms; parameters: method as in PMID 22142651; details: escitalopram 5–20 mg/day; breast cancer patients; cited from earlier work
# CYP 2C9 = tested on: CYP 2C9; parameters: method as in PMID 17375980; details: cited from earlier work
# adrenergic receptors = tested on: adrenergic receptors; parameters: method as in PMID 16266205; details: cited from earlier work
# CYP 1A2 = tested on: CYP 1A2; parameters: method as in PMID 17375980; details: cited from earlier work
# CYP3A4 = tested on: CYP3A4; parameters: method as in PMID 11454728; details: cited from earlier work
# [3] = Completion / discontinuation of 1-month escitalopram treatment; type: in vivo, human (post-menopausal breast cancer patients); details: n=24
# Procedure: (§1) Data on age, body mass index (BMI; kg/m^2), stage of tumor, previous anti-neoplastic treatments, and concomitant medications were collected in each patient at study enrollment. Blood samples were collected twice, before and 1-month after the onset of escitalopram treatment to analyze change in plasma anastrozole as well as estradiol levels under escitalopram treatment. Anastrozole levels were also analyzed with respect to baseline characteristics including age (≤57 years vs. >57 years), BMI (≤29.9 kg/m^2 vs. >29.9 kg/m^2), radiotherapy (left vs. right breast, the side indicates the affected organs, none), chemotherapy (applied vs. none), tamoxifen (applied vs. none), tumor stage, estradiol levels (≤10 pg/mL vs. >10 pg/mL), concomitant medications (present vs. none) and in patients discontinued versus continued 1-month escitalopram treatment.
# Patients were on anastrozole (1 mg/day) for at least 1 month (30±2 days), while escitalopram was initiated with a dose of 10 mg/day for the first 7 days and then the dose was gradually elevated to 20 mg/day to enable tolerance.
# CYP 2C19 = tested on: CYP 2C19; parameters: method as in PMID 17375980; details: cited from earlier work
# CYP 3A4 = tested on: CYP 3A4; parameters: method as in PMID 17375980; details: cited from earlier work
# [4] = parameters: method as in earlier work; details: escitalopram 20 mg daily for 12 weeks; hot flushes; cited from earlier work
# CYP2D6 [5] = tested on: CYP2D6; parameters: method as in PMID 11454728; details: cited from earlier work
# serum estradiol = assay: Serum estradiol levels before and after escitalopram; type: in vivo, human (post-menopausal breast cancer patients)
# Procedure: as §1
# histaminergic receptors = tested on: histaminergic receptors; parameters: method as in PMID 16266205; details: cited from earlier work
# [6] = Liver and kidney functions after escitalopram; type: in vivo, human (post-menopausal breast cancer patients); details: continuers n=17; 1 month escitalopram with anastrozole
# cholinergic receptors = tested on: cholinergic receptors; parameters: method as in PMID 16266205; details: cited from earlier work
# [7] = female, human, in vivo
# Procedure: (§2) A total of 24 operated post-menopausal breast cancer patients who were co-prescribed with escitalopram while taking anastrozole for at least 1 month were included in this study. The inclusion criteria were being on anastrozole treatment (1 mg/day) for at least 1 month (30±2 days), being younger than age of 75, having no implementation of radiotherapy or chemotherapy in the past 3 months before the study enrollment and having normal renal and hepatic functions.
# (§3) Plasma anastrozole levels were measured twice, once before and once 1 month (30±2 days) after the onset of escitalopram by high-performance liquid chromatography (HPLC). The blood samples were centrifuged at 4500 g for 5 min within the 1 hour following the sampling and stored at -80°C until analysis. The plasma samples were extracted by using diethyl ether:dichloromethane (80:20, v:v) and high-performance liquid chromatography analyses were performed in Agilent Triple Quadrupole Mass Spectrometry system. A reverse phase C18 column (poroshell SB-C18, 2.7µm, 3.0 × 100 mm) was used within the system. The mobile phase was comprised of 5 mM ammonium acetate and acetonitrile at a ratio of 15:85 (v:v). Tolterodine was used as an internal standard. The external standard calibration interval was 0.5–50 ng/mL (r^2: 0.9930). Before analysis, 5 mL venous blood samples were collected into Na-EDTA-containing glass tubes and the blood samples were centrifuged at 4500 g for 5 min within an hour following the sampling and stored at -80°C until analysis.
# (§4) The time between the last dose of anastrozole and blood sampling was recorded. As there was a variation between the last anastrozole dose and the blood sampling time, the maximum plasma concentrations (Cmax) were extrapolated by using the following pharmacokinetic formula:
# [8] = breast cancer patients, cited from earlier work
# clinical = details: female, human, in vivo
# Procedure: as §2, §3, §4
# [9] = cited from earlier work
# [10] = under anastrozole 1 mg/day, n=24
smiles,measurement,setting,value
CNCCC(Oc1ccc(C(F)(F)F)cc1)c1ccccc1 (stereo not drawn) [fluoxetine],Ability to inhibit the CYP2D6 enzyme,CYP2D6 [1],strong inhibition
CN(C)CCCC1(c2ccc(F)cc2)OCc2cc(C#N)ccc21 (stereo not drawn) [citalopram],Ability to inhibit the CYP2D6 enzyme,CYP2D6 [1],weak inhibition
CN(C)CCC[C@@]1(c2ccc(F)cc2)OCc2cc(C#N)ccc21 [escitalopram],Share of CYP2C19 in bio-transformation of escitalopram,CYP2C19,37%
same,Time to amelioration of depression-related symptoms,[2],≤ 1 week
same,Inhibition of CYP 2C9,CYP 2C9,weak or negligible inhibition
same,Affinity for adrenergic receptors,adrenergic receptors,low affinity
same,Inhibition of CYP 1A2,CYP 1A2,weak or negligible inhibition
same,Share of CYP3A4 in bio-transformation of escitalopram,CYP3A4,35%
same,Ability to inhibit the CYP2D6 enzyme,CYP2D6 [1],weak inhibition
same,Inhibition of CYP 2D6,CYP2D6 [1],weak or negligible inhibition
same,Patients who completed the 1-month escitalopram treatment,[3],70.8%
same,Patients who discontinued escitalopram within the 1st week of treatment,[3]; 10 mg/day first 7 days,29.2%
same,Inhibition of CYP 2C19,CYP 2C19,weak or negligible inhibition
same,Inhibition of CYP 3A4,CYP 3A4,weak or negligible inhibition
same,Patients who discontinued treatment due to side effects such as nausea and somnolence,[4],14%
same,Share of CYP2D6 in bio-transformation of escitalopram,CYP2D6 [5],28%
same,Change in estradiol levels after escitalopram administration,"serum estradiol; continuers n=17, 1 month escitalopram with anastrozole",no change
same,Affinity for histaminergic receptors,histaminergic receptors,low affinity
same,Change in liver and kidney functions after escitalopram administration,[6],No significant change
same,Affinity for cholinergic receptors,cholinergic receptors,low affinity
"CC(C)(C#N)c1cc(Cn2cncn2)cc(C(C)(C)C#N)c1 [Anastrozole, anastrozole]",Basal plasma anastrozole level,[7],52.2 ng/mL
same,"Plasma anastrozole, post-escitalopram",[7],31.9 ng/mL
same,"Plasma anastrozole, post-escitalopram",[7]; 1 month,27.9 ng/mL
same,"Anastrozole concentrations, inter-individual range",[8]; past studies,0.0 to 98.8 ng/mL
same,"Anastrozole plasma steady-state concentration, mean",[8]; previous studies,37.4 ng/mL
same,"Anastrozole plasma steady-state concentration, median",[8]; previous studies,32.2 ng/mL
same,Patients with serum estradiol levels >10 pg/mL,serum estradiol; [10],25%
same,Patients with serum estradiol levels ≤10 pg/mL,serum estradiol; [10],75%
same,concentration at 1 month,"clinical; Plasma anastrozole levels, range",9.1 to 57 ng/mL
same,concentration at 1 month,"clinical; Plasma anastrozole, post-escitalopram",40.4 ng/mL
Fc1ccc([C@@H]2CCNC[C@H]2COc2ccc3c(c2)OCO3)cc1 [paroxetine],Ability to inhibit the CYP2D6 enzyme,CYP2D6 [1],strong inhibition
NC(=O)N1c2ccccc2C=Cc2ccccc21 [Carbamazepine],"Carbamazepine clearance, non-obese versus obese patients",[9],marginally higher
same,Carbamazepine clearance after major weight loss,[9]; six obese patients,significantly increased
